Measurements as given in the supplement of paper PMC10307832.

How the values were obtained:
Assay in all cases: relative viability (nuclei count vs DMSO), 5 days (fraction); higher = more cells survive
Avagacestat + Navitoclax = compound: NC(=O)[C@@H](CCC(F)(F)F)N(Cc1ccc(-c2ncon2)cc1F)S(=O)(=O)c1ccc(Cl)cc1 [Avagacestat] + CC1(C)CCC(c2ccc(Cl)cc2)=C(CN2CCN(c3ccc(C(=O)NS(=O)(=O)c4ccc(N[C@H](CCN5CCOCC5)CSc5ccccc5)c(S(=O)(=O)C(F)(F)F)c4)cc3)CC2)C1 [Navitoclax] (partner 0.5 µM)
How it was run: (§1)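 Lung cancer cell lines, seeded in 1536-well plates, were treated the following day by pin tool with a single drug or with five library-drug doses (not always all listed) in √10 steps on top of a fixed anchor-drug dose. Cells were fixed and nuclei stained in one step after 5 days, and nuclei were counted. Relative viability is the nuclei count for treated wells divided by that for vehicle wells, reported as medians of duplicate plates.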

Avagacestat + Luminespib = compound: NC(=O)[C@@H](CCC(F)(F)F)N(Cc1ccc(-c2ncon2)cc1F)S(=O)(=O)c1ccc(Cl)cc1 [Avagacestat] + CCNC(=O)c1noc(-c2cc(C(C)C)c(O)cc2O)c1-c1ccc(CN2CCOCC2)cc1 [Luminespib] (partner 0.01 µM)
How it was run: as §1

Avagacestat + Foretinib = compound: NC(=O)[C@@H](CCC(F)(F)F)N(Cc1ccc(-c2ncon2)cc1F)S(=O)(=O)c1ccc(Cl)cc1 [Avagacestat] + COc1cc2c(Oc3ccc(NC(=O)C4(C(=O)Nc5ccc(F)cc5)CC4)cc3F)ccnc2cc1OCCCN1CCOCC1 [Foretinib] (partner 0.25 µM)
How it was run: as §1

Avagacestat + Linsitinib = compound: NC(=O)[C@@H](CCC(F)(F)F)N(Cc1ccc(-c2ncon2)cc1F)S(=O)(=O)c1ccc(Cl)cc1 [Avagacestat] + C[C@]1(O)C[C@@H](c2nc(-c3ccc4ccc(-c5ccccc5)nc4c3)c3c(N)nccn32)C1 [Linsitinib] (partner 1 µM)
How it was run: as §1

| Cell Line | relative viability (Avagacestat + Navitoclax; first compound 0.08 µM) | relative viability (Avagacestat + Navitoclax; first compound 0.253 µM) | relative viability (Avagacestat + Navitoclax; first compound 0.8 µM) | relative viability (Avagacestat + Navitoclax; first compound 2.53 µM) | relative viability (Avagacestat + Navitoclax; first compound 8 µM) | relative viability (Avagacestat + Luminespib; first compound 0.08 µM) | relative viability (Avagacestat + Luminespib; first compound 0.253 µM) | relative viability (Avagacestat + Luminespib; first compound 0.8 µM) | relative viability (Avagacestat + Luminespib; first compound 2.53 µM) | relative viability (Avagacestat + Luminespib; first compound 8 µM) | relative viability (Avagacestat + Foretinib; first compound 0.08 µM) | relative viability (Avagacestat + Foretinib; first compound 0.253 µM) | relative viability (Avagacestat + Foretinib; first compound 0.8 µM) | relative viability (Avagacestat + Foretinib; first compound 2.53 µM) | relative viability (Avagacestat + Foretinib; first compound 8 µM) | relative viability (Avagacestat + Linsitinib; first compound 0.08 µM) | relative viability (Avagacestat + Linsitinib; first compound 0.253 µM) | relative viability (Avagacestat + Linsitinib; first compound 0.8 µM) | relative viability (Avagacestat + Linsitinib; first compound 2.53 µM) | relative viability (Avagacestat + Linsitinib; first compound 8 µM) |
| --- | --- | --- | --- | --- | --- | --- | --- | --- | --- | --- | --- | --- | --- | --- | --- | --- | --- | --- | --- | --- |
| NCI-H1666 | 1.15 | 1.11 | 1.17 | 0.955 | 1.02 | 1.29 | 1.21 | 1.12 | 1.07 | 1.13 | 1.32 | 1.15 | 1.16 | 1.07 | 1.07 | 1.03 | 0.861 | 1.02 | 0.865 | 1.02 |
| NCI-H1734 | 1.11 | 0.96 | 0.875 | 0.777 | 0.724 | 0.219 | 0.179 | 0.212 | 0.202 | 0.175 | 0.932 | 0.934 | 0.839 | 0.771 | 0.835 | 1.2 | 0.924 | 0.946 | 0.819 | 0.782 |
| NCI-H1755 | 1.08 | 1.21 | 1.09 | 0.959 | 0.943 | 0.72 | 0.55 | 0.418 | 0.697 | 0.386 | 0.951 | 0.921 | 1 | 0.847 | 0.849 | 1.05 | 1.05 | 1.03 | 0.991 | 0.951 |
| NCI-H1793 | 0.434 | 0.491 | 0.507 | 0.347 | 0.396 | 0.145 | 0.176 | 0.157 | 0.198 | 0.172 | 0.686 | 0.693 | 0.854 | 0.473 | 0.619 | 1.01 | 0.926 | 1.02 | 0.913 | 0.657 |
| NCI-H1915 | 0.84 | 0.812 | 0.798 | 0.807 | 0.828 | 1.07 | 1.18 | 1.01 | 0.745 | 0.669 | 1.21 | 1.26 | 1.21 | 1.06 | 1.03 | 1.11 | 1.18 | 1.08 | 1.08 | 1.09 |
| NCI-H1944 | 1.14 | 1.09 | 1.03 | 0.989 | 0.993 | 0.731 | 0.941 | 0.591 | 0.515 | 0.599 | 0.895 | 1.06 | 0.795 | 0.644 | 0.779 | 1.28 | 1.15 | 1.47 | 1.04 | 1.01 |
| NCI-H1975 | 1.26 | 1.28 | 1.25 | 1.07 | 1.02 | 0.216 | 0.164 | 0.207 | 0.182 | 0.154 | 1.1 | 1.16 | 0.988 | 1.02 | 1.01 | 1.14 | 1.19 | 1.04 | 0.943 | 0.994 |
| NCI-H1993 | 1.08 | 0.995 | 1.09 | 0.905 | 1.04 | 0.93 | 0.91 | 1.04 | 0.752 | 0.842 | 0.924 | 0.885 | 0.973 | 0.763 | 0.787 | 0.754 | 0.746 | 0.765 | 0.773 | 0.749 |
| NCI-H2009 | 1.27 | 1.23 | 1.17 | 1.12 | 1.13 | 1.13 | 1.03 | 1.2 | 1.04 | 0.901 | 1.31 | 1.39 | 1.24 | 1.24 | 1.21 | 1.26 | 1.34 | 1.2 | 1.22 | 1.1 |
| NCI-H2023 | 1.14 | 1.28 | 1.12 | 0.834 | 0.894 | 1.06 | 0.862 | 0.952 | 0.514 | 0.762 | 0.857 | 0.892 | 1 | 0.847 | 0.65 | 0.789 | 0.784 | 0.628 | 0.606 | 0.47 |
| NCI-H2085 | 1.21 | 1.37 | 1.13 | 1.26 | 1.08 | 0.438 | 0.481 | 0.729 | 0.414 | 0.472 | 1.25 | 1.09 | 1.06 | 1.11 | 0.911 | 0.913 | 0.967 | 1.08 | 0.922 | 0.84 |
| NCI-H2087 | 1.34 | 1.19 | 1.02 | 1.16 | 0.931 | 0.161 | 0.173 | 0.276 | 0.264 | 0.143 | 1.11 | 1.39 | 1.09 | 1.09 | 1.23 | 1.2 | 1.2 | 1.03 | 1.2 | 1.02 |
| NCI-H2126 | 1.02 | 0.899 | 0.875 | 0.798 | 0.832 | 0.893 | 0.939 | 0.978 | 0.852 | 0.891 | 1.53 | 1.21 | 1.34 | 1.06 | 1.02 | 0.757 | 0.705 | 0.696 | 0.706 | 0.67 |
| NCI-H2228 | 1.25 | 1.19 | 1.08 | 0.903 | 0.956 | 0.221 | 0.117 | 0.179 | 0.132 | 0.108 | 1.07 | 1.1 | 0.941 | 0.773 | 0.793 | 1.04 | 0.765 | 0.786 | 0.62 | 0.534 |
| NCI-H2347 | 0.907 | 0.866 | 0.923 | 0.663 | 0.797 | 0.633 | 0.379 | 0.608 | 0.512 | 0.311 | 1.22 | 1.07 | 0.931 | 0.842 | 0.977 | 1.04 | 0.989 | 1.02 | 0.943 | 0.897 |
